Consider one compound from patent US11318113B2, “Compounds for the treatment of diseases linked to mitochondrial reactive oxygen species (ROS) production” (OP2 DRUGS, priority 2015, dated 2022).

The test system of data set [1] is outer nuclear layer (ONL) of the retina. The data set can be described thus: Progressive light-induced retinal degeneration, retina histology. Format: in vivo, rat. The conditions noted are these: 6 mg/kg/day, three times a day, 7 days. The method, then:
Rats bred under cyclic low-intensity lighting were transferred to cyclic high-intensity lighting for one week and divided into 3 groups (non-treated animals, vehicle-treated animals and AOL-treated animals). Treated animals received injections of vehicle or AOL at a dose of 6 mg/kg/day, three times a day for the 7 days of the transfer (30 minutes before light-ON; at 01.00 pm; at 09.00 pm). After one week, animals were transferred in the dark (D0).
A control group (“untransferred”) was not transferred to cyclic high-intensity lighting but received the same treatment as described above: injections of vehicle or AOL three times a day for 7 days, followed by a transfer in the dark (D0).
Animals were then sacrificed for histological analysis.

For data set [2], the system named is normoxic, chronic hypoxic and monocrotaline-treated rats. In words: Pulmonary hypertension rat models (chronic hypoxia, monocrotaline). Type of data set: in vivo. The method, then:
Male Wistar rats (300-400 g) were separated into 3 groups and used 4 weeks later: • the first group (control or normoxic rats—N rats) was housed in ambient room air; • the second group (chronic hypoxic rats—CH rats) was exposed to chronic hypoxia for 3 weeks in a hypobaric chamber (50 kPa), and • the third group (MCT rats) was injected with a single intraperitoneal dose of monocrotaline at a dose of 60 mg/kg. MCT (Sigma, St Quentin Fallavier, France) was dissolved in an equal volume of HCl ([…]) and NaOH ([…]).
In each group, some animals were treated with AOL (Sulfarlem, EG Labo Eurogenerics. Crushed tablets mixed with food, fed ad libitum) and some other animals were untreated. Eaten food was weighed every day to estimate the AOL dose administered. 10 mg/kg/day was thus administered during the 3 weeks of experiment for the second and third groups.
Pulmonary hypertension was assessed by measuring both the mean pulmonary arterial pressure (mPAP) and right ventricle hypertrophy. To measure PAP, N, CH and MCT rats were anesthetized with pentobarbital sodium (Centravet) by intraperitoneal injection (60 mg/kg) and mPAP was measured, in closed-chest rats, through a catheter inserted in the right jugular vein, then through the right atria and the right ventricle into the pulmonary artery, and attached to a Baxter Uniflow gauge pressure transducer.
Right ventricle hypertrophy was estimated by the ratio of right ventricle (RV) to left ventricle plus septum (LV+S) weight (Fulton index).
Pulmonary arteries (PA) remodeling was assessed by measuring the percentage of the PA medial thickness from sections of paraffin-embedded lung. Lung sections were first stained with hematoxylin and eosin (VWR) according to common histological procedure.

The test system of data set [3] is TH-positive neurons in the substantia nigra of MPTP-treated mice. In words: Sub-chronic MPTP mouse model of Parkinson's disease, TH-positive neuron count. Type of data set: in vivo. The conditions noted are these: 5 mg/kg ip, 11 consecutive days; p<0.01. The procedure:
In this study, the potential neuroprotective effects of AOL were assessed by counting the number of tyrosine hydroxylase (TH)-positive neurons in the substantia nigra (SN) in the sub-chronic 1-methyl-4-phenyl-1,2,3,6-tetrahydropyridine (MPTP) mouse model of Parkinson's disease. Mice were treated with AOL (5 mg/kg; ip) or vehicle for 11 consecutive days. MPTP (20 mg/kg; ip) or saline was administered on treatment days 4-8. All mice were killed on day 12 following final administration of treatment.
For vehicle conditions, the test item was dissolved in 0.5% DMSO/0.95% Tween 20 in saline while AOL was administered intraperitoneally (i.p.) at the dose of 5 mg/kg. […]
Unbiased stereological analysis was used to estimate the number of TH-immunopositive (TH+) neurons (Mercator, Explora Nova, La Rochelle, France). The boundaries of the SN were determined by examining the size and shape of the different TH+ neuronal groups. The volume was calculated by using the formula: V=ΣS td; where ΣS is the sum of surface areas, t is the average section thickness and d is the number of slices between two consecutive sections measured. […] The following formula was used to estimate the number of TH+ neurons: N=V(SN) (ΣQ−/ΣV(dis)); where N is the estimation of cell number, V is the volume of the SN, ΣQ− is the number of cells counted in the dissectors, and ΣV(dis) is the total volume of all the dissectors. […]

The subject of data set [4] is NAD(P)H oxidase. The data set can be described thus: NAD(P)H oxidase ROS/H2O2 production control test without mitochondria. Type of data set: biochemical. The conditions noted are these: no mitochondria; NAD(P)H oxidase + NADH; results not shown.

Molecules are shown by their SMILES.

As to `COc1ccc(-c2cc(=S)ss2)cc1` [AOL, 5-(4-methoxyphenyl)-3H-1,2-dithiole-3-thione], the ONL thickness entry is “significant increase” in data set [1] (transferred to cyclic high-intensity lighting) and “no effect” in data set [1] (untransferred control group). For the same compound, in data set [2] (CH rats, oral 10 mg/kg/day), the “reduction of pulmonary arteries remodeling (printed: pulmonary arteries diameter)” value is on record as approximately 30%. Besides, the “mean pulmonary arterial pressure (mPAP)” value is “even more significantly” in data set [2] (CH rats, oral 10 mg/kg/day, 3 weeks); “decreased” in data set [2] (MCT rats, oral 10 mg/kg/day, 3 weeks); “no significant effect” in data set [2] (normoxic (N) rats). For the same compound, the “Fulton index (right ventricular hypertrophy)” value in data set [2] (oral 10 mg/kg/day) is “no effect”. Besides, the “increase in number of TH+ cells in the SN compared to vehicle in MPTP-treated mice” value in data set [3] was found to be 44%. The “ROS/H2O2 production by NAD(P)H oxidase” value in data set [4] is listed as “does not inhibit”.
